Measured values: US8785488B2 (Exelixis Patent Company LLC, priority 2009, dated 2014)

How the values were obtained:
human TGR5 (h-TGR5) = biological target: T1, human TGR5 (h-TGR5) (Homo sapiens, UniProt Q8TDU6); test: TGR5/CRE-Luciferiase Assay (HEK 293 hTGR5/CRE-Luc cells); assay type: cell-based; conditions: h-TGR5 CRE-Luc EC50, Table 1; read-out: CRE-Luc (EC50)
T1 construct: expressed in transfected cells
T1 sequence (Q8TDU6 1-330): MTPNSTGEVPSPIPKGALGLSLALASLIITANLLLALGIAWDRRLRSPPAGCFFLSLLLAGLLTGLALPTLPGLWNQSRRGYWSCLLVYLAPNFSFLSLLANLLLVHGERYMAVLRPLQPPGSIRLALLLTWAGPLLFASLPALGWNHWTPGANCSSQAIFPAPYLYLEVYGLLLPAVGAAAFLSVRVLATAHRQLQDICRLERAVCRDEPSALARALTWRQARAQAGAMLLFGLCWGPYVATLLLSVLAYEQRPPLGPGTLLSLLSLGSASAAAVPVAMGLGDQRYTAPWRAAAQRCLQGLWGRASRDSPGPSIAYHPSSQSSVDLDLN
In short: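 HEK293 cells stably carrying hTGR5 and a CRE-luciferase reporter were exposed to serially diluted compounds (diluted in DMEM with 5% DMSO) for 6 h. Cells were then lysed in luciferase buffer, luminescence was read, and EC50 values were derived from dose-response curves.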

h-TGR5 = biological target: T2, h-TGR5 (Homo sapiens, UniProt Q8TDU6); test: TGR5 cAMP Assay using Cisbio cAMP Dynamic2 htrf kit (hTGR5CRE-luc HEK 293 cells); assay type: cell-based; conditions: h-TGR5 cAMP EC50, Table 1; read-out: cAMP (EC50)
T2 construct: expressed in transfected cells
T2 sequence (Q8TDU6 1-330): T1 sequence (Q8TDU6 1-330)
Description: Compounds were diluted in DPBS with 5% DMSO (8-point serial dilution by half logs) in a 96-well plate and 1 μL was transferred to a 384-well assay plate in quadruplicate. The d2-cAMP and anti-cAMP Ab-cryptate stock solution were prepared as per the instructions in the Cisbio™ (Bedford, Mass.) kit. […] Cells were adjusted to 0.44×10^6 cells/ml followed by addition of IBMX to a final concentration of 0.5 mM. The cells were then mixed with d2-cAMP solution (7.1 mL cells+100 ul d2-cAMP) and 4000 cells (9 μL) were transferred to each well of the 384-well assay plate. Cells without d2-cAMP were added to eight wells as a negative control. The plate was covered and incubated at room temp for 30 min. Then 10 μL of Ab-cryptate solution was added to each well of the assay plate and incubated for 1 hr. The plate was read on an EnVision™ plate reader (Perkin-Elmer, Waltham, Mass.) and the DeltaF value was calculated as per the instructions in the Cisbio™ kit.
In the following tables, EC50 values determined according to the TGR5 cAMP Assay described herein (cAMP); EC50 values determined according to the TGR5/CRE-Luciferiase Assay described herein (CRE-Luc). […] The following compounds in Tables 1 and 2 were made by using procedures described in the above Schemes and Examples, and, where applicable, by making any necessary substitutions of known materials that one skilled in the art would ordinarily understand how to do.

Compound | EC50 (human TGR5 (h-TGR5)) [nM] | EC50 (h-TGR5) [nM]
COc1cc(-n2c(C(C)(C)c3ccc(F)c(C#N)c3)cnc2SCc2ccc(S(=O)(=O)NC(=O)NC(C)C)cc2Cl)ccc1F [3-chloro-4-[({5-[1-(3-cyano-4-fluorophenyl)-1-methylethyl]-1-[4-fluoro-3-(methyloxy)phenyl]-1H-imidazol-2-yl}thio)methyl]-N-{[(1-methylethyl)amino]carbonyl}benzenesulfonamide] | < 100 | < 100
COc1ccc(C(C)(C)c2cnc(SCc3ccc(F)c(S(N)(=O)=O)c3)n2-c2ccc(F)cc2)cc1OC [5-({[5-{1-[3,4-bis(methyloxy)phenyl]-1-methylethyl}-1-(4-fluorophenyl)-1H-imidazol-2-yl]thio}methyl)-2-fluorobenzenesulfonamide] | < 100 | < 100
COc1cc(-n2c(C(C)(C)c3ccc(F)c(C#N)c3)cnc2SCc2ccc(S(=O)(=O)NC(=O)NN3CCCC3)cc2Cl)ccc1F [3-chloro-4-[({5-[1-(3-cyano-4-fluorophenyl)-1-methylethyl]-1-[4-fluoro-3-(methyloxy)phenyl]-1H-imidazol-2-yl}thio)methyl]-N-[(pyrrolidin-1-ylamino)carbonyl]benzenesulfonamide] | 100 to 1000 | 100 to 1000
COc1cc(C(C)(C)c2cnc(SCc3c(F)cc(S(=O)(=O)NCCS(=O)(=O)O)cc3Cl)n2-c2ccc(F)cc2)ccc1Cl [2-({[3-chloro-4-({[5-{1-[4-chloro-3-(methyloxy)phenyl]-1-methylethyl}-1-(4-fluorophenyl)-1H-imidazol-2-yl]thio}methyl)-5-fluorophenyl]sulfonyl}amino)ethanesulfonic acid] | < 100 | < 100
COC[C@H]1CCCN1NC(=O)NS(=O)(=O)c1ccc(CSc2ncc(C(C)(C)c3ccc(Cl)c(OC)c3)n2-c2ccc(F)cc2)c(Cl)c1 [3-chloro-4-({[5-{1-[4-chloro-3-(methyloxy)phenyl]-1-methylethyl}-1-(4-fluorophenyl)-1H-imidazol-2-yl]thio}methyl)-N-[({(2R)-2-[(methyloxy)methyl]pyrrolidin-1-yl}amino)carbonyl]benzenesulfonamide] | 100 to 1000 | 100 to 1000
CC(C)(c1ccc(Cl)c(Cl)c1)c1cnc(SCc2ccc(F)cc2Cl)n1-c1ccc(F)c(CO)c1 [[5-(2-{[(2-chloro-4-fluorophenyl)methyl]thio}-5-[1-(3,4-dichlorophenyl)-1-methylethyl]-1H-imidazol-1-yl)-2-fluorophenyl]methanol] | 100 to 1000 | 100 to 1000
COc1cc(-n2c(C(C)(C)c3ccc(Cl)c(Cl)c3)cnc2SCc2ccc(CCCNC(=N)N)c(C(=O)O)c2)ccc1F [2-(3-{[amino(imino)methyl]amino}propyl)-5-[({5-[1-(3,4-dichlorophenyl)-1-methylethyl]-1-[4-fluoro-3-(methyloxy)phenyl]-1H-imidazol-2-yl}thio)methyl]benzoic acid] | 100 to 1000 | 100 to 1000
COc1ccc(C2CCCCN2S(=O)(=O)c2ncc(C(C)(C)c3ccc(Cl)c(Cl)c3)n2-c2ccc(F)cc2)cn1 (stereo not drawn) [5-[1-({5-[1-(3,4-dichlorophenyl)-1-methylethyl]-1-(4-fluorophenyl)-1H-imidazol-2-yl}sulfonyl)piperidin-2-yl]-2-(methyloxy)pyridine] | 100 to 1000 | 100 to 1000
COc1cc(-n2c(C(C)(C)c3ccc(S(C)(=O)=O)cc3)cnc2SCc2c(F)cc(C(=O)O)cc2F)ccc1F [3,5-difluoro-4-{[(1-[4-fluoro-3-(methyloxy)phenyl]-5-{1-methyl-1-[4-(methylsulfonyl)phenyl]ethyl}-1H-imidazol-2-yl)thio]methyl}benzoic acid] | 100 to 1000 | < 100

Next, values leading:

EC50 (human TGR5 (h-TGR5)) [nM] | EC50 (h-TGR5) [nM] | Compound
100 to 1000 | 100 to 1000 | COc1cc(C(C)(C)c2cnc(SCc3ccc(S(=O)(=O)NC(=O)NN4CCN(C)CC4)cc3Cl)n2-c2ccc(F)cc2)ccc1Cl [3-chloro-4-({[5-{1-[4-chloro-3-(methyloxy)phenyl]-1-methylethyl}-1-(4-fluorophenyl)-1H-imidazol-2-yl]thio}methyl)-N-{[(4-methylpiperazin-1-yl)amino]carbonyl} benzenesulfonamide]
< 100 | < 100 | COc1cc(C(C)(C)c2cnc(SCc3c(F)ccc(OCCCNC(=N)N)c3Cl)n2-c2ccc(F)cc2)ccc1F [1-(3-{[2-chloro-4-fluoro-3-({[5-{1-[4-fluoro-3-(methyloxy)phenyl]-1-methylethyl}-1-(4-fluorophenyl)-1H-imidazol-2-yl]thio}methyl)phenyl]oxy}propyl)guanidine]
< 100 | < 100 | CC(C)(c1ccc(F)c(C#N)c1)c1cnc(SCc2c(F)cc(C(=O)O)cc2F)n1-c1ccc(F)cc1 [4-[({5-[1-(3-cyano-4-fluorophenyl)-1-methylethyl]-1-(4-fluorophenyl)-1H-imidazol-2-yl}thio)methyl]-3,5-difluorobenzoic acid]
< 100 | 100 to 1000 | COc1ccc(C(C)(C)c2cnc(SCc3ccc(F)cc3Cl)n2-c2ccc(F)cc2)cc1OC [5-{1-[3,4-bis(methyloxy)phenyl]-1-methylethyl}-2-{[(2-chloro-4-fluorophenyl)methyl]thio}-1-(4-fluorophenyl)-1H-imidazole]
1000 to 10000 | < 100 | COc1cc(C(C)(C)c2cnc(SCc3ccc(S(=O)(=O)NC(=O)N4CCC(O)C4)cc3Cl)n2-c2ccc(F)cc2)ccc1Cl (stereo not drawn) [N-{[3-chloro-4-({[5-{1-[4-chloro-3-(methyloxy)phenyl]-1-methylethyl}-1-(4-fluorophenyl)-1H-imidazol-2-yl]thio}methyl)phenyl]sulfonyl}-3-hydroxypyrrolidine-1-carboxamide]
< 100 | 100 to 1000 | COc1ccc(C(C)(C)c2cnc(SCc3cc(F)ccc3Cl)n2-c2ccc(F)cc2)cc1Cl [2-{[(2-chloro-5-fluorophenyl)methyl]thio}-5-{1-[3-chloro-4-(methyloxy)phenyl]-1-methylethyl}-1-(4-fluorophenyl)-1H-imidazole]
< 100 | < 100 | COc1ccc(C(C)(C)c2cnc(SCc3ccc(S(N)(=O)=O)cc3Cl)n2-c2ccc(F)cc2)cc1Cl [3-chloro-4-({[5-{1-[3-chloro-4-(methyloxy)phenyl]-1-methylethyl}-1-(4-fluorophenyl)-1H-imidazol-2-yl]thio}methyl)benzenesulfonamide]
< 100 | < 100 | COc1ccc(C(C)(C)c2cnc(CN(C)c3c(F)cccc3Cl)n2-c2ccc(F)cc2)cc1OC [N-{[5-{1-[3,4-bis(methyloxy)phenyl]-1-methylethyl}-1-(4-fluorophenyl)-1H-imidazol-2-yl]methyl}-2-chloro-6-fluoro-N-methylaniline]
100 to 1000 | 1000 to 10000 | CC(C)(c1ccc(Cl)c(Cl)c1)c1cnc(SCc2ccc(S(=O)(=O)NC(=O)NN3CCCC3)cc2Cl)n1-c1ncc(F)cc1F [3-chloro-4-[({5-[1-(3,4-dichlorophenyl)-1-methylethyl]-1-(3,5-difluoropyridin-2-yl)-1H-imidazol-2-yl}thio)methyl]-N-[(pyrrolidin-1-ylamino)carbonyl]benzenesulfonamide]
100 to 1000 | 100 to 1000 | COc1cc(C(C)(C)c2cnc(SCc3ccc(S(=O)(=O)NC(=O)Nc4nccs4)cc3Cl)n2-c2ccc(F)cc2)ccc1Cl [3-chloro-4-({[5-{1-[4-chloro-3-(methyloxy)phenyl]-1-methylethyl}-1-(4-fluorophenyl)-1H-imidazol-2-yl]thio}methyl)-N-[(1,3-thiazol-2-ylamino)carbonyl]benzenesulfonamide]
< 100 | < 100 | COc1cc(-n2c(C(C)(C)c3ccc(Cl)c(Cl)c3)cnc2SCc2c(F)cc(C(=O)NCCS(=O)(=O)O)cc2F)ccc1F [2-[({4-[({5-[1-(3,4-dichlorophenyl)-1-methylethyl]-1-[4-fluoro-3-(methyloxy)phenyl]-1H-imidazol-2-yl}thio)methyl]-3,5-difluorophenyl}carbonyl)amino]ethanesulfonic acid]
< 100 | < 100 | COc1cc(-n2c(C(C)(C)c3ccc(S(N)(=O)=O)c(Cl)c3)cnc2SCc2ccc(C(=O)NCCS(=O)(=O)O)cc2F)ccc1F [2-{[(4-{[(5-{1-[4-(aminosulfonyl)-3-chlorophenyl]-1-methylethyl}-1-[4-fluoro-3-(methyloxy)phenyl]-1H-imidazol-2-yl)thio]methyl}-3-fluorophenyl)carbonyl]amino}ethanesulfonic acid]
